# Test results as given in ChEMBL document CHEMBL3727348, “3-(aryl or heteroaryl) methyleneindolin-2-one derivatives as inhibitors of cancer stem cell pathway kinases for the treatment of cancer” (2014).
# Tested on: ACHN
# Assay: Cytotoxic activity against human ACHN bulk cells incubated for 72 hrs by Cell-titer-Glo luminescence assay
# Format: functional, cell-based
# Settings: not given
row,SMILES,IC50
1,COC(=O)c1c(C)[nH]c(/C=C2\C(=O)Nc3ccc(-c4csc(C5CCNCC5)n4)cc32)c1C,0.52 µM
2,CCN(CC)CCNC(=O)c1c(C)[nH]c(/C=C2\C(=O)Nc3ccc(-c4ccc(-c5ccccc5)cn4)cc32)c1C,5.38 µM
3,Cc1[nH]c(/C=C2\C(=O)Nc3cc(-c4csc(-c5ccccc5)n4)ccc32)c(C)c1C(=O)N1CCN(C)CC1,11.6 µM
4,CCN(CC)CCNC(=O)c1c(C)[nH]c(/C=C2\C(=O)Nc3c2cccc3-c2ccc3cc[nH]c3c2)c1C,3 µM
5,CCN(CC)CCNC(=O)c1c(C)[nH]c(/C=C2\C(=O)Nc3c2cccc3-c2csc(-c3ccccc3)n2)c1C,3.2 µM
6,CCN(CC)CCNC(=O)c1c(C)[nH]c(/C=C2\C(=O)Nc3ccc(-c4csc(-c5ccccc5)n4)nc32)c1C,1.37 µM
7,Cc1cc(C)c(/C=C2\C(=O)Nc3cccc(-c4ccncc4)c32)[nH]1,19.8 µM

# Tested on: FaDu
# Assay: Cytotoxic activity against human FADU cancer stem cells incubated for 72 hrs by Cell-titer-Glo luminescence assay
# Format: functional, cell-based
# Settings: not given
row,SMILES,IC50
1,COC(=O)c1c(C)[nH]c(/C=C2\C(=O)Nc3ccc(-c4csc(C5CCNCC5)n4)cc32)c1C,0.22 µM
2,CCN(CC)CCNC(=O)c1c(C)[nH]c(/C=C2\C(=O)Nc3ccc(-c4ccc(-c5ccccc5)cn4)cc32)c1C,4.81 µM
3,Cc1[nH]c(/C=C2\C(=O)Nc3cc(-c4csc(-c5ccccc5)n4)ccc32)c(C)c1C(=O)N1CCN(C)CC1,1.03 µM
4,CCN(CC)CCNC(=O)c1c(C)[nH]c(/C=C2\C(=O)Nc3c2cccc3-c2ccc3cc[nH]c3c2)c1C,2.06 µM
5,CCN(CC)CCNC(=O)c1c(C)[nH]c(/C=C2\C(=O)Nc3c2cccc3-c2csc(-c3ccccc3)n2)c1C,1.26 µM
6,CCN(CC)CCNC(=O)c1c(C)[nH]c(/C=C2\C(=O)Nc3ccc(-c4csc(-c5ccccc5)n4)nc32)c1C,0.11 µM
7,Cc1cc(C)c(/C=C2\C(=O)Nc3cccc(-c4ccncc4)c32)[nH]1,12.2 µM

# Target: T1, Ribosomal protein S6 kinase (Homo sapiens) (UniProt P51812+Q9UBS0+O75676+Q15349+O75582+P23443+Q9UK32+Q15418)
# Assay: Inhibition of RPS6 kinase in human HeLa cells assessed as p-RPS6 Ser240/244 phosphorylation level at 5 uM incubated for 6 hrs by SDS-PAGE based chemiluminescence assay
# Format: cell-based
# Parameters: scale not given: the % may be the effect or the level left
# Settings: not given
row,Activity,SMILES
1,82%,CCN(CC)CCNC(=O)c1c(C)[nH]c(/C=C2\C(=O)Nc3ccc(-c4ccc(-c5ccccc5)cn4)cc32)c1C
2,44%,CCN(CC)CCNC(=O)c1c(C)[nH]c(/C=C2\C(=O)Nc3c2cccc3-c2ccc3cc[nH]c3c2)c1C
3,32%,CCN(CC)CCNC(=O)c1c(C)[nH]c(/C=C2\C(=O)Nc3c2cccc3-c2csc(-c3ccccc3)n2)c1C
4,42%,CCN(CC)CCNC(=O)c1c(C)[nH]c(/C=C2\C(=O)Nc3ccc(-c4csc(-c5ccccc5)n4)nc32)c1C

# Further lines, the molecule ahead of its results:
row,SMILES,Activity
1,COC(=O)c1c(C)[nH]c(/C=C2\C(=O)Nc3ccc(-c4csc(C5CCNCC5)n4)cc32)c1C,83%
2,Cc1[nH]c(/C=C2\C(=O)Nc3cc(-c4csc(-c5ccccc5)n4)ccc32)c(C)c1C(=O)N1CCN(C)CC1,73%
3,Cc1cc(C)c(/C=C2\C(=O)Nc3cccc(-c4ccncc4)c32)[nH]1,47%

# Target: AMP-activated protein kinase, AMPK (Homo sapiens) (UniProt P54646+O43741+P54619+Q9UGJ0+Q9Y478+Q13131+Q9UGI9)
# Assay: Inhibition of AMPK in human HeLa cells assessed as kinase phosphorylation level at 5 uM incubated for 6 hrs by SDS-PAGE based chemiluminescence assay
# Format: cell-based
# Parameters: scale not given: the % may be the effect or the level left
# Settings: not given
row,Activity,SMILES
1,118%,CCN(CC)CCNC(=O)c1c(C)[nH]c(/C=C2\C(=O)Nc3ccc(-c4ccc(-c5ccccc5)cn4)cc32)c1C
2,39%,CCN(CC)CCNC(=O)c1c(C)[nH]c(/C=C2\C(=O)Nc3c2cccc3-c2ccc3cc[nH]c3c2)c1C
3,144%,CCN(CC)CCNC(=O)c1c(C)[nH]c(/C=C2\C(=O)Nc3c2cccc3-c2csc(-c3ccccc3)n2)c1C
4,35%,CCN(CC)CCNC(=O)c1c(C)[nH]c(/C=C2\C(=O)Nc3ccc(-c4csc(-c5ccccc5)n4)nc32)c1C

# The remaining lines, values behind:
row,SMILES,Activity
1,COC(=O)c1c(C)[nH]c(/C=C2\C(=O)Nc3ccc(-c4csc(C5CCNCC5)n4)cc32)c1C,79%
2,Cc1[nH]c(/C=C2\C(=O)Nc3cc(-c4csc(-c5ccccc5)n4)ccc32)c(C)c1C(=O)N1CCN(C)CC1,150%
3,Cc1cc(C)c(/C=C2\C(=O)Nc3cccc(-c4ccncc4)c32)[nH]1,75%

# Tested on: ACHN
# Assay: Cytotoxic activity against human ACHN cancer stem cells incubated for 72 hrs by Cell-titer-Glo luminescence assay
# Format: functional, cell-based
# Settings: not given
row,SMILES,IC50
1,CCN(CC)CCNC(=O)c1c(C)[nH]c(/C=C2\C(=O)Nc3ccc(-c4ccc(-c5ccccc5)cn4)cc32)c1C,0.65 µM
2,Cc1[nH]c(/C=C2\C(=O)Nc3cc(-c4csc(-c5ccccc5)n4)ccc32)c(C)c1C(=O)N1CCN(C)CC1,0.39 µM
3,CCN(CC)CCNC(=O)c1c(C)[nH]c(/C=C2\C(=O)Nc3c2cccc3-c2ccc3cc[nH]c3c2)c1C,1.86 µM
4,CCN(CC)CCNC(=O)c1c(C)[nH]c(/C=C2\C(=O)Nc3c2cccc3-c2csc(-c3ccccc3)n2)c1C,0.28 µM
5,CCN(CC)CCNC(=O)c1c(C)[nH]c(/C=C2\C(=O)Nc3ccc(-c4csc(-c5ccccc5)n4)nc32)c1C,0.97 µM
6,Cc1cc(C)c(/C=C2\C(=O)Nc3cccc(-c4ccncc4)c32)[nH]1,16.2 µM

# Tested on: FaDu
# Assay: Cytotoxic activity against human FADU bulk cells incubated for 72 hrs by Cell-titer-Glo luminescence assay
# Format: functional, cell-based
# Settings: not given
row,SMILES,IC50
1,COC(=O)c1c(C)[nH]c(/C=C2\C(=O)Nc3ccc(-c4csc(C5CCNCC5)n4)cc32)c1C,0.69 µM
2,CCN(CC)CCNC(=O)c1c(C)[nH]c(/C=C2\C(=O)Nc3ccc(-c4ccc(-c5ccccc5)cn4)cc32)c1C,2.72 µM
3,Cc1[nH]c(/C=C2\C(=O)Nc3cc(-c4csc(-c5ccccc5)n4)ccc32)c(C)c1C(=O)N1CCN(C)CC1,4.74 µM
4,CCN(CC)CCNC(=O)c1c(C)[nH]c(/C=C2\C(=O)Nc3c2cccc3-c2ccc3cc[nH]c3c2)c1C,2.77 µM
5,CCN(CC)CCNC(=O)c1c(C)[nH]c(/C=C2\C(=O)Nc3c2cccc3-c2csc(-c3ccccc3)n2)c1C,3.75 µM
6,CCN(CC)CCNC(=O)c1c(C)[nH]c(/C=C2\C(=O)Nc3ccc(-c4csc(-c5ccccc5)n4)nc32)c1C,1.37 µM
7,Cc1cc(C)c(/C=C2\C(=O)Nc3cccc(-c4ccncc4)c32)[nH]1,19.6 µM

# Tested on: A549
# Assay: Cytotoxic activity against human A549 bulk cells incubated for 72 hrs by Cell-titer-Glo luminescence assay
# Format: functional, cell-based
# Settings: A549, 72 h
row,SMILES,IC50
1,COC(=O)c1c(C)[nH]c(/C=C2\C(=O)Nc3ccc(-c4csc(C5CCNCC5)n4)cc32)c1C,0.7 µM
2,CCN(CC)CCNC(=O)c1c(C)[nH]c(/C=C2\C(=O)Nc3ccc(-c4ccc(-c5ccccc5)cn4)cc32)c1C,2.02 µM
3,Cc1[nH]c(/C=C2\C(=O)Nc3cc(-c4csc(-c5ccccc5)n4)ccc32)c(C)c1C(=O)N1CCN(C)CC1,26.3 µM
4,CCN(CC)CCNC(=O)c1c(C)[nH]c(/C=C2\C(=O)Nc3c2cccc3-c2ccc3cc[nH]c3c2)c1C,2.91 µM
5,CCN(CC)CCNC(=O)c1c(C)[nH]c(/C=C2\C(=O)Nc3c2cccc3-c2csc(-c3ccccc3)n2)c1C,1.96 µM
6,CCN(CC)CCNC(=O)c1c(C)[nH]c(/C=C2\C(=O)Nc3ccc(-c4csc(-c5ccccc5)n4)nc32)c1C,1.74 µM
7,Cc1cc(C)c(/C=C2\C(=O)Nc3cccc(-c4ccncc4)c32)[nH]1,13.1 µM

# Target: T1, Ribosomal protein S6 kinase (Homo sapiens)
# Assay: Inhibition of RPS6 kinase in human HeLa cells assessed as p-RPS6 Ser235/236 phosphorylation level at 5 uM incubated for 6 hrs by SDS-PAGE based chemiluminescence assay
# Format: cell-based
# Parameters: scale not given: the % may be the effect or the level left
# Settings: not given
row,Activity,SMILES
1,61%,CCN(CC)CCNC(=O)c1c(C)[nH]c(/C=C2\C(=O)Nc3ccc(-c4ccc(-c5ccccc5)cn4)cc32)c1C
2,29%,CCN(CC)CCNC(=O)c1c(C)[nH]c(/C=C2\C(=O)Nc3c2cccc3-c2ccc3cc[nH]c3c2)c1C
3,2%,CCN(CC)CCNC(=O)c1c(C)[nH]c(/C=C2\C(=O)Nc3c2cccc3-c2csc(-c3ccccc3)n2)c1C
4,5%,CCN(CC)CCNC(=O)c1c(C)[nH]c(/C=C2\C(=O)Nc3ccc(-c4csc(-c5ccccc5)n4)nc32)c1C

# More lines, now with the values behind:
row,SMILES,Activity
1,COC(=O)c1c(C)[nH]c(/C=C2\C(=O)Nc3ccc(-c4csc(C5CCNCC5)n4)cc32)c1C,70%
2,Cc1[nH]c(/C=C2\C(=O)Nc3cc(-c4csc(-c5ccccc5)n4)ccc32)c(C)c1C(=O)N1CCN(C)CC1,33%
3,Cc1cc(C)c(/C=C2\C(=O)Nc3cccc(-c4ccncc4)c32)[nH]1,50%

# Tested on: A549
# Assay: Cytotoxic activity against human A549 cancer stem cells incubated for 72 hrs by Cell-titer-Glo luminescence assay
# Format: functional, cell-based
# Settings: A549, 72 h
row,SMILES,IC50
1,COC(=O)c1c(C)[nH]c(/C=C2\C(=O)Nc3ccc(-c4csc(C5CCNCC5)n4)cc32)c1C,2.48 µM
2,CCN(CC)CCNC(=O)c1c(C)[nH]c(/C=C2\C(=O)Nc3ccc(-c4ccc(-c5ccccc5)cn4)cc32)c1C,3.79 µM
3,Cc1[nH]c(/C=C2\C(=O)Nc3cc(-c4csc(-c5ccccc5)n4)ccc32)c(C)c1C(=O)N1CCN(C)CC1,1.22 µM
4,CCN(CC)CCNC(=O)c1c(C)[nH]c(/C=C2\C(=O)Nc3c2cccc3-c2ccc3cc[nH]c3c2)c1C,3.9 µM
5,CCN(CC)CCNC(=O)c1c(C)[nH]c(/C=C2\C(=O)Nc3c2cccc3-c2csc(-c3ccccc3)n2)c1C,1.57 µM
6,CCN(CC)CCNC(=O)c1c(C)[nH]c(/C=C2\C(=O)Nc3ccc(-c4csc(-c5ccccc5)n4)nc32)c1C,0.62 µM
7,Cc1cc(C)c(/C=C2\C(=O)Nc3cccc(-c4ccncc4)c32)[nH]1,30.3 µM
